# Data as given in patent US7244608B2, “Microorganism producing 5′-inosinic acid and process for producing 5′-inosinic acid using the same” (priority 2000, dated 2007).
# How the values were obtained:
# [1] = tested on: CS101; experiment: Growth on minimal agar medium containing the agent, strain CS101; format: cell-based, Corynebacterium ammoniagenes
# [2] = tested on: Corynebacterium ammoniagenes strain CJ112 (ATCC-6872); experiment: Growth on minimal agar medium containing the agent; biochemical properties of parent strain; format: cell-based
# Experimental: (§1) The biochemical properties of representative variants of the novel strain CJIP009 according to the present invention is shown in the following Table 1 (This invention is not limited to the following properties).
# (§2) Corynebacterium ammoniagenes strain CJ112 (ATCC-6872), the parent strain, was suspended to 10^7˜10^8 cells/mL in the phosphate buffer (pH 7.0) or citrate buffer (pH 5.5). N-methyl-N′-nitro-N-nitrosoguanidine (NTG) was added to a final concentration of 10˜50 μg/mL at room temperature or 32° C. After 20˜40 minutes, cells were washed twice with 0.85% saline. Colonies were obtained by suitably suspending and spreading cells on a minimal medium (Medium 2) containing 1.7% agar. Then, each colony was tooth picked on to the minimal medium (Medium 2) containing 1.7% agar and on the minimal medium (Medium 2) containing 1.7% agar and […] of lysozyme. First, microorganisms that grew on the minimal medium containing 1.7% agar, but not on the minimal medium containing 40 μg/mL of lysozyme were selected. […] The colony of highly lysozyme sensitive microorganisms was cultivated on a nutrition medium (Medium 1), then cultivated for 24 hours on a seed medium (Medium 3), and cultivated for 3˜4 days on a culture medium (Medium 4) thereby to select LY002 that can produce 5′-inosinic acid accumulated in the culture medium at the largest amounts.
# [3] = tested on: Corynebacterium ammoniagenes CJIP009 (KCCM-10226); experiment: Growth on minimal agar medium containing the agent; biochemical properties of mutant CJIP009; format: cell-based; settings: strain CJIP009 (KCCM-10226)
# Experimental: The protocol by which the mutant microorganims of the present invention was isolated began with strain CJ 12 as the parental strain and consisted of several iterations of mutagenesis and screening. In each iteration, microorganisms were treated with X-ray irradiation, ultraviolet ray irradiation, and/or a chemical mutagen, such as N-methyl-N′-nitro-N-nitrosoguanidine (NTG), diethyl sulfate, ethyl amine, etc., and then screened for 5′-inosinic acid production. Treated bacteria were suitably suspended and spread on a minimal medium (Medium 2) containing 1.7% agar and each concentration of variants. Then, each colony was cultivated on a nutrition medium (Medium 1) followed by a seed medium (Medium 3) for 24 hours and a fermentation medium (Medium 4) for […]. Colonies that produced the highest levels of 5′-inosinic acid were selected for subsequent rounds of mutagenesis.
# as §1
# The mutant of Example 5, strain CITP13, was used as the parent strain for Example 6. CITP13 was suspended to 10^7˜10^8 cells/mL in the phosphate buffer (pH 7.0) or citrate buffer (pH 5.5). NTG mutagenesis was performed as in Example 1. Colonies were obtained by suitably suspending and spreading cells on a 3 minimal media (Medium 2), which contained 1.7% agar and 50 μg/ml, 75 μg/ml, or 100 μg/mL of azaserine, respectively. Then, each colony was cultivated on the nutrition medium (Medium 1), then cultivated for 24 hours on a seed medium (Medium 3), and cultivated for 3–4 days on a culture medium (Medium 4) thereby to select CJIP009 (KCCM-10226) that can produce 5′-inosinic acid accumulated in the culture medium at the largest amounts.
# [4] = tested on: CISM10; experiment: Growth on minimal agar medium containing the agent, strain CISM10; format: cell-based, Corynebacterium ammoniagenes
# Experimental: The mutant of Example 1, strain LY002, was used as the parent strain for Example 2. LY002 was suspended to 10^7˜10^8 cells/mL in the phosphate buffer (pH 7.0) or citrate buffer (pH 5.5). NTG mutagenesis was performed as in Example 1. Colonies were obtained by suitably suspending and spreading cells on a 3 minimal media (Medium 2), which contained 1.7% agar and 1,000 μg/ml, 1,500 μg/mL or 2,000μg/mL of streptomycin, respectively. Then, each colony was cultivated on the nutrition medium (Medium 1), then cultivated for 24 hours on a seed medium (Medium 3), and cultivated for 3˜4 days on a culture medium (Medium 4) thereby to select CISM10 that can produce 5′-inosinic acid accumulated in the culture medium at the largest amounts.
# The mutant of Example 2, strain CISM10, was used as the parent strain for Example 3. CISM10 was suspended to 10^7˜10^8 cells/mL in the phosphate buffer (pH 7.0) or citrate buffer (pH 5.5). NTG mutagenesis was performed as in Example 1. Colonies were obtained by suitably suspending and spreading cells on a 3 minimal media (Medium 2), which contained 1.7% agar and 1,500 μg/ml, 2,500 μg/ml, or 3,500 μg/mL of 3,4-dehydroproline, respectively. Then, each colony was cultivated on the nutrition medium (Medium 1), then cultivated for 24 hours on a seed medium (Medium 3), and cultivated for 3–4 days on a culture medium (Medium 4) thereby to select […] that can produce 5′-inosinic acid accumulated in the culture medium at the largest amounts.
# [5] = tested on: CITP13; experiment: Growth on minimal agar medium containing the agent, strain CITP13; format: cell-based, Corynebacterium ammoniagenes
# Experimental: The mutant of Example 4, strain CIAC12, was used as the parent strain for Example 5. CIAC12 was suspended to 10^7˜10^8 cells/mL in the phosphate buffer (pH 7.0) or citrate buffer (pH 5.5). NTG mutagenesis was performed as in Example 1. Colonies were obtained by suitably suspending and spreading cells on a 3 minimal media (Medium 2), which contained 1.7% agar and 20 μg/ml, 50 μg/ml, or 100 μg/mL of L-thiazolidine-4-carboxylic acid, respectively. Then, each colony was cultivated on the nutrition medium (Medium 1), then cultivated for 24 hours on a seed medium (Medium 3), and, cultivated for 3˜4 days on a culture medium (Medium 4) thereby to select CITP13 that can produce 5′-inosinic acid accumulated in the culture medium at the largest amounts.
# The mutant of Example 5, strain CITP13, was used as the parent strain for Example 6. CITP13 was suspended to 10^7˜10^8 cells/mL in the phosphate buffer (pH 7.0) or citrate buffer (pH 5.5). NTG mutagenesis was performed as in Example 1. Colonies were obtained by suitably suspending and spreading cells on a 3 minimal media (Medium 2), which contained 1.7% agar and 50 μg/ml, 75 μg/ml, or 100 μg/mL of azaserine, respectively. […]
# [6] = tested on: CIAC12; experiment: Growth on minimal agar medium containing the agent, strain CIAC12; format: cell-based, Corynebacterium ammoniagenes
# Experimental: The mutant of Example 3, strain CS101, was used as the parent strain for Example 4. CS101 was suspended to 10^7˜10^8 cells/mL in the phosphate buffer (pH 7.0) or citrate buffer (pH 5.5). NTG muta genesis was performed as in Example 1. Colonies were obtained by suitably suspending and spreading cells on a 3 minimal media (Medium 2), which contained 1.7% agar and 10 μg/ml, 20 μg/ml, or 30 μg/mL of L-azetidine-2-carboxylic acid, respectively. Then, each colony was cultivated on the nutrition medium (Medium 1), then cultivated for 24 hours on a seed medium (Medium 3), and cultivated for 3˜4 days on a culture medium (Medium 4), thereby to select CIAC12 that can produce 5′-inosinic acid accumulated in the culture medium at the largest amounts.
# [7] = tested on: the present strain; experiment: Effect of amino acids on synthesis of 5'-inosinic acid by direct fermentation; format: cell-based, Corynebacterium ammoniagenes; settings: added to the medium
# Excerpt: Accordingly, the present inventors tested the effect of various amino acids on the synthesis of 5′-inosinic acid by direct fermentation. As the result, the inventors determined that the fermentation concentration of 5′-inosinic acid increased upon addition of L-glutamine to the medium. The inventors further determined that the appropriate supply of L-glutamine to the present strain is a rate-limiting step in the synthesis of 5′-inosinic acid.
# [8] = tested on: LY002; experiment: Growth on minimal agar medium containing the agent, strain LY002; format: cell-based, Corynebacterium ammoniagenes
# Experimental: as §2
# The mutant of Example 1, strain LY002, was used as the parent strain for Example 2. LY002 was suspended to 10^7˜10^8 cells/mL in the phosphate buffer (pH 7.0) or citrate buffer (pH 5.5). NTG mutagenesis was performed as in Example 1. […]
compound,measurement,setting,value
"O=C(O)C1C=CCN1 (stereo not shown) [3,4-dehydroproline]","Concentration of 3,4-dehydroproline at which the microorganism shows resistance",[1],"3,500 μg/ml"
same,Resistance to agent (concentration),[2]; strain ATCC6872,"1,000 μg/ml"
same,Resistance to agent (concentration),[3],"3,500 μg/ml"
same,"Concentration of 3,4-dehydroproline at which the microorganism shows resistance",[4],"1,000 μg/ml"
[N-]=[N+]=CC(=O)OC[C@H](N)C(=O)O [Azaserine],Resistance to agent (concentration),[2]; strain ATCC6872,25 µg/mL
same,Concentration of azaserine at which the microorganism shows resistance,[5],25 µg/mL
same,Concentration of azaserine at which the microorganism shows resistance,[3],100 µg/mL
same,Resistance to agent (concentration),[3],100 µg/mL
O=C(O)[C@@H]1CCN1 [L-azetidine-2-carboxylic acid],Resistance to agent (concentration),[2]; strain ATCC6872,5000 µg/mL
same,Resistance to agent (concentration),[3],30000 µg/mL
same,Concentration of L-azetidine-2-carboxylic acid at which the microorganism shows resistance,[4],5 mg/mL
same,Concentration of L-azetidine-2-carboxylic acid at which the microorganism shows resistance,[6],30 mg/mL
NC(=O)CC[C@H](N)C(=O)O [L-glutamine],Fermentation concentration of 5'-inosinic acid upon addition to the medium,[7],increased
O=C(O)[C@@H]1CSCN1 [L-thiazolidine-4-carboxylic acid],Concentration of L-thiazolidine-4-carboxylic acid at which the microorganism shows resistance,[1],100 µg/mL
same,Resistance to agent (concentration),[2]; strain ATCC6872,10 µg/mL
same,Resistance to agent (concentration),[3],100 µg/mL
same,Concentration of L-thiazolidine-4-carboxylic acid at which the microorganism shows resistance,[4],10 µg/mL
"[H]/N=C(/N)N[C@H]1[C@H](O)[C@@H](O)[C@H](O[C@@H]2O[C@@H](C)[C@](O)(C=O)[C@H]2O[C@@H]2O[C@@H](CO)[C@H](O)[C@@H](O)[C@@H]2NC)[C@@H](N/C(N)=N\[H])[C@@H]1O [Streptomycin, streptomycin]",Resistance to agent (concentration),[2]; strain ATCC6872,500 µg/mL
same,Concentration of streptomycin at which the microorganism shows resistance,[8],500 µg/mL
same,Resistance to agent (concentration),[3],"2,000 μg/ml"
same,Concentration of streptomycin at which the microorganism shows resistance,[4],"2,000 μg/ml"
lysozyme,Sensitivity to lysozyme (minimal growth inhibition concentration),[2]; strain ATCC6872,80 µg/mL
same,Concentration of lysozyme at which the microorganism shows sensitivity,[2]; strain CJ112,80 µg/mL
same,Concentration of lysozyme at which the microorganism shows sensitivity,[8],8 µg/mL
same,Sensitivity to lysozyme (minimal growth inhibition concentration),[3],8 µg/mL
